Among the data in patent EP0674645B1, “CEPHEM COMPOUNDS WITH ANTIMICROBIAL ACTIVITY” (FUJISAWA PHARMACEUTICAL CO., LTD., priority 1992, dated 1994) are MIC values, retold here.

Holding throughout (experiment): In vitro antibacterial activity, two-fold agar-plate dilution method (MIC)
Holding throughout (assay type): cell-based

One test has as its system E. coli 31. The conditions noted are these: Escherichia coli, heart infusion agar, 10^6 viable cells per ml, 37°C for 20 hours. As for the experimental part:
(§1) In vitro antibacterial activity was determined by the two-fold agar-plate dilution method as described below. One loopful of an overnight culture of each test strain in Trypticase-soy broth (10^6 viable cells per ml) was streaked on heart infusion agar (HI-agar) containing graded concentrations of representative test compound, and the minimal inhibitory concentration (MIC) was expressed in terms of µg/ml after incubation at 37°C for 20 hours.

The subject of the next test is P. aeruginosa 2. The conditions noted are these: Pseudomonas aeruginosa, heart infusion agar, 10^6 viable cells per ml, 37°C for 20 hours. As for the experimental part: as §1
For another test, the system named is S. aureus 2538. Particulars: Staphylococcus aureus, heart infusion agar, 10^6 viable cells per ml, 37°C for 20 hours. As for the experimental part:
as §1

Structures can show the parent of a compound that is named as a salt.

Usually MIC stands for the lowest concentration found to suppress growth. Consider `CCO/N=C(\C(=O)N[C@@H]1C(=O)N2C(C(=O)[O-])=C(C[n+]3ccc(N)n3CCO)CS[C@H]12)c1nsc(N)n1` [7β-[2-(5-Amino-1,2,4-thiadiazol-3-yl)-2-ethoxyiminoacetamido]-3-[3-amino-2-(2-hydroxyethyl)-1-pyrazolio]methyl-3-cephem-4-carboxylate hydrochloride (syn isomer)], for which the figures for the MIC against E. coli 31, in the test on P. aeruginosa 2 and against S. aureus 2538 were at most 0.025 µg/mL, 0.39 µg/mL and 3.13 µg/mL, respectively.
